Holding throughout (format): cell-based
Assay [1] relates to Capan-1 (pancreatic adenocarcinoma) cells. As to the kind of experiment: Cytostatic activity, Capan-1. As to the method: (§1) The 50% cytostatic inhibitory concentration (IC50) causing a 50% decrease in cell proliferation was determined for all isolated isoxazolidines 14 and γ-lactams 15 toward nine cancerous cell lines (Capan-1 (pancreatic adenocarcinoma), Hap1 (chronic myeloid leukemia), HCT-116 (colorectal carcinoma), NCI-H460 (lung carcinoma), DND-41 (acute lymphoblastic leukemia), HL-60 (acute myeloid leukemia), K-562 (chronic myeloid leukemia), MM.1S (multiple myeloma) and Z-138 (non-Hodgkin lymphoma)) and normal retina (non-cancerous) cells (hTERT RPE-1).
All assays were performed in 96-well microtiter plates. To each well was added (5−7.5) × 10^4 tumor cells and a given amount of the test compound. The cells were allowed to proliferate at 37 °C in a humidified, CO2-controlled atmosphere. At the end of the incubation period, the cells were counted in a Coulter counter.

The subject of assay [2] is Hap1 (chronic myeloid leukemia) cells. Put plainly: Cytostatic activity, Hap1. The note with it: concentration causing 50% decrease in cell proliferation. As to the method:
as §1, with “RPE-1). Docetaxel, etoposide and stauroporine were used as the reference compounds.” for “RPE-1).”
(§2) All assays were performed in 96-well microtiter plates. To each well was added (5−7.5) × 10^4 tumor cells and a given amount of the test compound. The cells were allowed to proliferate at 37 °C in a humidified, CO2-controlled atmosphere. At the end of the incubation period, the cells were counted in a Coulter counter. The IC50 (50% inhibitory concentration) was defined as the concentration of the compound that inhibited cell proliferation by 50%.

In assay [3] the test system is hTERT RPE-1 normal retina (non-cancerous) cells. Put plainly: Cytostatic activity, normal retina cells. The note with it: concentration causing 50% decrease in cell proliferation. Here is the method: as §1, with “RPE-1). Docetaxel, etoposide and stauroporine were used as the reference compounds.” for “RPE-1).”
as §2

In assay [4] the test system is HCT-116 (colorectal carcinoma) cells. Put plainly: Cytostatic activity, HCT-116. The note with it: concentration causing 50% decrease in cell proliferation. As to the method:
as §1, with “RPE-1). Docetaxel, etoposide and stauroporine were used as the reference compounds.” for “RPE-1).”
as §2

The test system of assay [5] is NCI-H460 (lung carcinoma) cells. Put plainly: Cytostatic activity, NCI-H460. To be noted: concentration causing 50% decrease in cell proliferation. Here is the method: as §1, with “RPE-1). Docetaxel, etoposide and stauroporine were used as the reference compounds.” for “RPE-1).”
as §2

[6] abbreviates: concentration causing 50% decrease in cell proliferation.
Setting [7] is: Homo sapiens, CAPAN-1, concentration causing 50% decrease in cell proliferation.

Molecules are shown by their SMILES.

`COC(=O)[C@@H]1C[C@H](Cn2cc(Br)c(=O)[nH]c2=O)N(C)O1` (relative stereo) [cis-14d, Methyl cis-3-{[5-bromo-2,4-dioxo-3,4–dihydropyrimidin-1(2H)-yl]metyl}-2-methylisoxazolidine-5-carboxylate]: the IC50 was 95 µM in assay [1] (setting [6]); above 100 µM in assay [2]; above 100 µM in assay [3]; 86.4 µM in assay [4]; 62.3 µM in assay [5].
`CN1C(=O)[C@H](O)C[C@@H]1Cn1cnc2c(=O)n(C)c(=O)n(C)c21` (relative stereo) [cis-15h, cis-9-[(4-Hydroxy-1-methyl-5-oxopyrrolidin-2-yl)methyl]-1,3-dimethyl-3,9–dihydro-1H-purine-2,6-dione]: the IC50 was 18.2 µM in assay [1] (setting [7]); 21.5 µM in assay [1] (setting [6]); 50.2 µM in assay [2] (Homo sapiens, HAP1); above 100 µM in assay [3] (hTERT-RPE1); 43.5 µM in assay [4] (Homo sapiens, HCT-116); 42.5 µM in assay [5] (Homo sapiens, NCI-H460).
Turning to `Cc1cn(C[C@H]2C[C@H](O)C(=O)N2C)c(=O)[nH]c1=O` (relative stereo) [trans-15b, trans-1-[(4-Hydroxy-1-methyl-5-oxopyrrolidin-2-yl)methyl]-5-methylpyrimidine-2,4(1H,3H)-dione], the IC50 is 49.2 µM in assay [1] (setting [7]); 86.5 µM in assay [2] (Homo sapiens, HAP1); above 100 µM in assay [3] (hTERT-RPE1); 53.3 µM in assay [4] (Homo sapiens, HCT-116); 55.6 µM in assay [5] (Homo sapiens, NCI-H460).
The corresponding values for `CN1C(=O)[C@@H](O)C[C@@H]1Cn1cnc2c(N)ncnc21` (relative stereo) [trans-15i, trans-5-[(6-Amino-9H-purin-9-yl)methyl]-3-hydroxy-1-methylpyrrolidin-2-one] are 53.7 µM, 47.8 µM, above 100 µM, 65.7 µM and 54.7 µM.
The corresponding values for `COC(=O)[C@@H]1C[C@H](Cn2cnc3c(=O)n(C)c(=O)n(C)c32)N(C)O1` (relative stereo) [cis-14h, Methyl cis-3-[(1,3-dimethyl-2,6-dioxo-1,2,3,6-tetrahydro-9H-purin-9-yl)methyl]-2-methylisoxazolidine-5-carboxylate] are 62.2 µM, 45.1 µM, above 100 µM, 49 µM and 33.2 µM.
As to `COC(=O)[C@@H]1C[C@H](Cn2cc(F)c(=O)[nH]c2=O)N(C)O1` (relative stereo) [cis-14c, Methyl cis-3-{[5-fluoro-2,4-dioxo-3,4–dihydropyrimidin-1(2H)-yl]metyl}-2-methylisoxazolidine-5-carboxylate], the IC50 in assay [1] (setting [6]), in assay [2], in assay [3], in assay [4] and in assay [5] was above 100 µM in each case.
On to `CN1C(=O)[C@@H](O)C[C@H]1CN1CCC(=O)NC1=O` [cis-15g, cis-1-[(4-Hydroxy-1-methyl-5-oxopyrrolidin-2-yl)metyl]dihydropyrimidine-2,4(1H,3H)-dione], for which the IC50 in assay [1] (setting [7]) was 41.3 µM; in assay [2] (Homo sapiens, HAP1), 56.3 µM; in assay [3] (hTERT-RPE1), above 100 µM; in assay [4] (Homo sapiens, HCT-116), above 100 µM; in assay [5] (Homo sapiens, NCI-H460), 42.7 µM.
Regarding `COC(=O)[C@H]1C[C@H](Cn2cc(I)c(=O)[nH]c2=O)N(C)O1` (relative stereo) [trans-14f, Methyl trans-3-{[5-iodo-2,4-dioxo-3,4–dihydropyrimidin-1(2H)-yl]metyl}-2-methylisoxazolidine-5-carboxylate], the IC50 in assay [1] (setting [6]) is 41.4 µM; in assay [2] it was 47 µM; in assay [3] it was above 100 µM; in assay [4] it was 53.5 µM; in assay [5] it was 41.1 µM.
For `COC(=O)[C@H]1C[C@H](Cn2cc(F)c(=O)[nH]c2=O)N(C)O1` (relative stereo) [trans-14c, Methyl trans-3-{[5-fluoro-2,4-dioxo-3,4–dihydropyrimidin-1(2H)-yl]metyl}-2-methylisoxazolidine-5-carboxylate], the half-maximal inhibitory concentration (IC50) is 49 µM in assay [1] (setting [6]); above 100 µM in assay [2]; above 100 µM in assay [3]; above 100 µM in assay [4]; above 100 µM in assay [5].

What is called IC50 is the concentration that gives 50% inhibition. A low value points to greater potency.

The values are drawn from publication PMC6891762, “Novel Isoxazolidine and γ-Lactam Analogues of Homonucleosides” (Molecules, 2019).
